Measurements as given in ChEMBL document CHEMBL1123871, “Methotrexate analogues. 30. Dihydrofolate reductase inhibition and in vitro tumor cell growth inhibition by N epsilon-(haloacetyl)-L-lysine and N delta-(haloacetyl)-L-ornithine analogues and an acivicin analogue of methotrexate” (J Med Chem, 1987).

What was measured:
L1210 [1] = assay: Inhibition of L1210 cultured murine leukemia cell growth; assay type: functional, cell-based; conditions: Mus musculus
[2] = Fold resistance calculated by dividing the IC50(L1210/R81) by the IC50(L1210)
L1210 [3] = assay: Inhibition of L1210/R81 murine leukemia cell growth; assay type: functional, cell-based; conditions: Mus musculus
Dihydrofolate reductase = molecular target: T1, Dihydrofolate reductase (Mus musculus, UniProt P00375)
T1 sequence (P00375 whole entry): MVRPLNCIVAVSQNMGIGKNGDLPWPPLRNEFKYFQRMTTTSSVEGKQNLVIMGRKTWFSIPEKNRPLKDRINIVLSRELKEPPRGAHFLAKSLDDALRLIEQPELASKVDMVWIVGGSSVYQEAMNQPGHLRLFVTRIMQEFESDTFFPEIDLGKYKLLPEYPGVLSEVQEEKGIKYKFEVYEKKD
Description: Inhibition of dihydrofolate reductase(DHFR) from L1210/R81 cells

Compound	IC50 (L1210 [1]) [nM]	Resistance [2]	IC50 (L1210 [3]) [nM]	IC50 (Dihydrofolate reductase) [nM]
CN(Cc1cnc2nc(N)nc(N)c2n1)c1ccc(C(=O)N[C@@H](CCC(=O)O)C(=O)O)cc1 [METHOTREXATE]	5	44000	–	–
CN(Cc1cnc2nc(N)nc(N)c2n1)c1ccc(C(=O)NC(CCCNC(=O)CBr)C(=O)O)cc1 (stereo not drawn)	126	1200	155	46
CN(Cc1cnc2nc(N)nc(N)c2n1)c1ccc(C(=O)NC(CCCCNC(=O)CBr)C(=O)O)cc1 (stereo not drawn)	96	2500	240	72

Now from value to compound:

IC50 (L1210 [1]) [nM]	Resistance [2]	IC50 (L1210 [3]) [nM]	IC50 (Dihydrofolate reductase) [nM]	Compound
62	1700	105	32	CN(Cc1cnc2nc(N)nc(N)c2n1)c1ccc(C(=O)NC(CCCNC(=O)CCl)C(=O)O)cc1 (stereo not drawn)
33	2800	93	32	CN(Cc1cnc2nc(N)nc(N)c2n1)c1ccc(C(=O)NC(CCCCNC(=O)CCl)C(=O)O)cc1 (stereo not drawn)
